This is an account of results in ChEMBL document CHEMBL3045891, “Effects of three neem-based insecticides on diamondback moth (lepidoptera: plutellidae)” (2003).

SMILES strings stand for the structures. Active and inactive are the calls of the source. The calls are words filed in the database; no cut-off is given here.

In assay [1] the test system is Plutella xylostella. Nature of the assay: Insecticidal activity against third-instar of Plutella xylostella (diamondback moth) on cabbage leaves assessed as mortality after 5 days. It is filed as functional, organism-based.
The test system of assay [2] is Plutella xylostella. Nature of the assay: Insecticidal activity against larvae of Plutella xylostella (diamondback moth) on cabbage leaves after 5 days. It is filed as functional, organism-based.
The test system of assay [3] is Plutella xylostella. Description: Reduction of oviposition in adult Plutella xylostella (diamondback moth) in aluminium foil assessed as number of egg oviposited after 24 hr by two choice test. It is filed as functional, organism-based.
Assay [4] deals with Plutella xylostella. Nature of the assay: Reduction of oviposition in adult Plutella xylostella (diamondback moth) in cabbage leaves assessed as number of egg oviposited after 24 hr by two choice test. It is filed as functional, organism-based.
Assay [5] has as its system Plutella xylostella. Nature of the assay: Reduction of oviposition in adult Plutella xylostella (diamondback moth) in aluminium foil assessed as number of egg oviposited after 24 hr by no choice test. It is filed as functional, organism-based.
Assay [6] relates to Plutella xylostella. Description: Reduction of oviposition in adult Plutella xylostella (diamondback moth) in cabbage leaves assessed as number of egg oviposited after 24 hr by no choice test. It is filed as functional, organism-based.
For assay [7], the system named is Plutella xylostella. Description: Antifeedant activity against fourth-instar of Plutella xylostella (diamondback moth) on cabbage leaves assessed as leaf disks damage. It is filed as functional.
For assay [8], the system named is Plutella xylostella. Nature of the assay: Antifeedant activity against second-instar of Plutella xylostella (diamondback moth) on cabbage leaves assessed as leaf disks damage. It is filed as functional.
Assay [9] relates to Plutella xylostella. Nature of the assay: Antifeedant activity against third-instar of Plutella xylostella (diamondback moth) on cabbage leaves assessed as leaf disks damage. It is filed as functional.
The subject of assay [10] is Plutella xylostella. Description: Antifeedant activity against neonates of Plutella xylostella (diamondback moth) on cabbage leaves assessed as leaf disks damage. It is filed as functional.
Assay [11] has as its system Plutella xylostella. Description: Antifeedant activity against larvae of Plutella xylostella (diamondback moth) on cabbage leaves assessed as diameter of larvae after 5 days. It is filed as functional.
Assay [12] deals with Plutella xylostella. Description: Antifeedant activity against larvae of Plutella xylostella (diamondback moth) on cabbage leaves assessed as length of larvae after 5 days. It is filed as functional.
Assay [13] concerns Plutella xylostella. Description: Antifeedant activity against larvae of Plutella xylostella (diamondback moth) on cabbage leaves assessed as weight of larvae after 5 days. It is filed as functional.
Assay [14] relates to Plutella xylostella. Description: Insecticidal activity against Plutella xylostella (diamondback moth) eggs on cabbage leaves assessed as eggs developed to neonates after 5 days relative to control. It is filed as functional.
Assay [15] has as its system Plutella xylostella. Description: Insecticidal activity against third-instar of Plutella xylostella (diamondback moth) on cabbage leaves assessed as survival after 3 days. It is filed as functional.
Assay [16] has as its system Plutella xylostella. Nature of the assay: Insecticidal activity against neonates of Plutella xylostella (diamondback moth) on cabbage leaves assessed as survival after 5 days. It is filed as functional.

On to `C/C=C(\C)C(=O)O[C@H]1C[C@@H](OC(C)=O)[C@@]2(C(=O)OC)CO[C@H]3[C@@H](O)[C@@](C)([C@]45O[C@@]4(C)[C@@H]4C[C@H]5O[C@@H]5OC=C[C@@]54O)[C@H]4[C@]1(CO[C@]4(O)C(=O)OC)[C@@H]32` (stereo in doubt; form 1), for which the outcome with Plutella xylostella [1], with Plutella xylostella [2] and with Plutella xylostella [3] was Active. The result with Plutella xylostella [4], in the assay with Plutella xylostella [5] and with Plutella xylostella [6] was inactive.

In the case of `C/C=C(\C)C(=O)O[C@H]1C[C@@H](OC(C)=O)[C@@]2(C(=O)OC)CO[C@H]3[C@@H](O)[C@@](C)([C@]45O[C@@]4(C)[C@@H]4C[C@H]5O[C@@H]5OC=C[C@@]54O)[C@H]4[C@]1(CO[C@]4(O)C(=O)OC)[C@@H]32` (stereo in doubt; form 1) [AZADIRACHTIN A], the Activity in the assay with Plutella xylostella [7] was 10.1%; with Plutella xylostella [8] it was 2.1%; in the assay on Plutella xylostella [9] it was 5.1%; in the assay on Plutella xylostella [10] it was “<=2%”; in the assay with Plutella xylostella [11], 2 mm; in the assay on Plutella xylostella [12], 13.5 mm. For the same compound, the Activity was determined as 0.013 mg with Plutella xylostella [13] and 75.2% with Plutella xylostella [14].

In the case of `C/C=C(\C)C(=O)O[C@H]1C[C@@H](OC(C)=O)[C@@]2(C(=O)OC)CO[C@H]3[C@@H](O)[C@@](C)([C@]45O[C@@]4(C)[C@@H]4C[C@H]5O[C@@H]5OC=C[C@@]54O)[C@H]4[C@]1(CO[C@]4(O)C(=O)OC)[C@@H]32` (stereo in doubt; form 2), the outcome in the assay on Plutella xylostella [1], in the assay on Plutella xylostella [2] and in the assay with Plutella xylostella [3] was Active. In addition, the result with Plutella xylostella [4], in the assay with Plutella xylostella [5] and in the assay on Plutella xylostella [6] was inactive.

With `C/C=C(\C)C(=O)O[C@H]1C[C@@H](OC(C)=O)[C@@]2(C(=O)OC)CO[C@H]3[C@@H](O)[C@@](C)([C@]45O[C@@]4(C)[C@@H]4C[C@H]5O[C@@H]5OC=C[C@@]54O)[C@H]4[C@]1(CO[C@]4(O)C(=O)OC)[C@@H]32` (stereo in doubt; form 2) [AZADIRACHTIN A], the Activity turned out to be 2.5 mm in the assay with Plutella xylostella [11], 14.7 mm in the assay with Plutella xylostella [12], 0.012 mg with Plutella xylostella [13] and 66.2% in the assay on Plutella xylostella [14].

With `C/C=C(\C)C(=O)O[C@H]1C[C@@H](OC(C)=O)[C@@]2(C(=O)OC)CO[C@H]3[C@@H](O)[C@@](C)([C@]45O[C@@]4(C)[C@@H]4C[C@H]5O[C@@H]5OC=C[C@@]54O)[C@H]4[C@]1(CO[C@]4(O)C(=O)OC)[C@@H]32` (stereo in doubt; form 3), the outcome in the assay with Plutella xylostella [1], in the assay on Plutella xylostella [2] and with Plutella xylostella [3] was Active. Besides, the outcome in the assay on Plutella xylostella [4], in the assay on Plutella xylostella [5] and in the assay with Plutella xylostella [6] was inactive.

On to `C/C=C(\C)C(=O)O[C@H]1C[C@@H](OC(C)=O)[C@@]2(C(=O)OC)CO[C@H]3[C@@H](O)[C@@](C)([C@]45O[C@@]4(C)[C@@H]4C[C@H]5O[C@@H]5OC=C[C@@]54O)[C@H]4[C@]1(CO[C@]4(O)C(=O)OC)[C@@H]32` (stereo in doubt; form 3) [AZADIRACHTIN A], for which the Activity is reported as 2.2 mm in the assay with Plutella xylostella [11], 14.8 mm with Plutella xylostella [12], 0.016 mg in the assay on Plutella xylostella [13] and 61.6% with Plutella xylostella [14]. Besides, the Survival in the assay on Plutella xylostella [15] is reported as less than 60%; in the assay with Plutella xylostella [16] it was 50%.
